The text below walks through data of US20200146973A1, “Pharmaceutical Composition for Oral Delivery of Hydrophobic Small Molecule Drug and Hydrophilic Small Molecule Drug Concurrently” (National Tsing Hua University, priority 2016, published 2020).

Molecules are shown by their SMILES. Where two headings read alike, the source gives them in different places.

One series has as its system RAW 264.7 cells. As to the kind of experiment: Uptake of emulsion containing DiO and Rhodamine B by RAW 264.7 cells (CLSM). The format is cell-based. To be noted: 3 hours of incubation, FIG. 12. Here is the method:
To understand better the route of drug delivery, RAW 264.7 cells are added the prepared emulsion containing DiO and Rhodamine B and then cultured for 3 hours. The unabsorbed emulsion is washed with PBS, and then the cells are fixed with formalin, stained, and observed with the CLSM. In addition, the rats are oral administrated with the enteric-coated gelatin capsules that contained the pharmaceutical composition of the present disclosure (the dose of DiO and Rhodamine B is 12 mg/kg, respectively). The animals are sacrificed 6 hours after oral administration, the MLNs are retrieved from euthanized rats, and the tissues are fixed in formalin for 4 hours at room temperature. Then the tissue was cut to size and embedded in OCT gel for frozen section and subsequent staining. The sections are finally examined by CLSM.

For series [1] the following is noted: Lewis, rat, in vivo.
Protocol: (§1) The pharmacokinetics of the pharmaceutical composition of the present disclosure is analyzed in this experiment. There are two groups, the rats are oral administered of the pharmaceutical composition of the present disclosure with 12 mg/kg of paclitaxel and 12 mg/kg of gemcitabine as the oral group, and the rats are tail intravenous injected at a dose of 12 mg/kg of paclitaxel and 12 mg/kg of gemcitabine as the I.V. group. After administration, blood of rat is collected from the tail vein at 0.5, 1, 2, 3, 4, 6, 8, 10, 12, 24, 48 hours, and plasma of rat is obtained after centrifugation. After treatment, the drug concentration is quantified by HPLC.
(§2) For quantifying gemcitabine (hereafter GEM), tetrahydrouridine (10 mM, 10 μL) is added, and 2 mL of an organic mixture (15% isopropanol in ethyl acetate) is added into 100 μL of the plasma. After mixing, the supernatant is centrifuged, dried, and then dissolved in the mobile phase to perform HPLC. Mobile phase is 0.1 M ammonium acetate:acetonitrile=98:2. For quantifying paclitaxel (hereafter PTX), 400 μL of acetonitrile is added into 100μL of plasma. After mixing well, the sample is centrifuged to remove the supernatant. Then 100 μL of ZnSO4 (10% w/v aqueous solution) is added. After mixing well, the sample is centrifuged to remove the supernatant. Then 1 mL of ethyl acetate is added. After mixing well, the sample is centrifuged to remove the supernatant, and then dried. Then the sample is dissolved in methanol to perform HPLC. Mobile phase is H2O:acetonitrile=90:10.
Series [2] in a line: Pharmacokinetics in rats after I.V. injection or oral administration, plasma drug concentration quantified by HPLC.
Protocol: as §1, §2
Another series in a line: in vivo. To be noted: Lewis, rat, 12 mg/kg.
A short description of series [3]: In vivo transport route by immunofluorescence staining (small intestine, MLNs, tumor; CLSM). To be noted: oral capsule, DiO and Rhodamine B 12 mg/kg each, 6 hours after administration, FIG. 11. On the set-up: species or system Lewis rats. An excerpt: In addition to the comprehensive in vitro characterization of the pharmaceutical composition of the present disclosure, determination of the biodistribution of these lipid oil drops following in vivo administration is crucial because they act at the site of accumulation. To trace the pharmaceutical composition of the present disclosure in rats, DiO and Rhodamine B are used as fluorescent model drug for hydrophobic small molecule drug and hydrophilic small molecule drug, respectively.
The animal studies involved Lewis rats with masses of approximately 250 g and are performed in compliance with the “Guide for the Care and Use of Laboratory Animals”, which was prepared by the Institute of Laboratory Animal Resources, National Research Council, and published by the National Academy Press in 1996. The Institutional Animal Care and Use Committee of National Tsing Hua University approved all studies. To prepare the enteric-coated gelatin capsules for use in this experiment, hard gelatin capsules (size 9; Torpac Inc., Fairfield, N.J., U.S.A.) are manually filled with a powdered mixture of Rhodamine B (1 mg), DiO (1 mg), capric acid (18 mg), citric acid (6 mg), and sodium bicarbonate (5 mg), as per the manufacturer's instructions. […]

Series [4] is described as follows: Ex vivo IVIS biodistribution of fluorescent model drugs in major organs. On the set-up: species or system rats. As to conditions: FIG. 14. The method, then: Further, ex vivo imaging of the distributions of different drugs in the major organs that are isolated from the test rats was conducted using an in vivo imaging system (IVIS). The rats are oral administrated a dose of 12 mg/kg of DiO and 12 mg/kg of Rhodamine B as an experiment group, and tail intravenous injected the same dose of DiO and Rhodamine B as an I.V. control group. In addition, the rats are intraperitoneally injected cycloheximide 1 hour before oral administration to block lymphatic absorption as a control group. The animals are sacrificed 6 hours after the feeding and 1 hour after the tail intravenous injection. At the time of maximum accumulation, the rats are sacrificed to remove the main organs (heart, lung, liver, spleen, pancreas and kidney) and the distribution of the fluorescent dye is observed by IVIS.

[5] abbreviates: Lewis, rat, plasma, iv, 12 mg/kg.
[6] abbreviates: Lewis, rat, plasma, po, 12 mg/kg.
[7] abbreviates: Oral group, 12 mg/kg each, rat plasma.

With `CCCCCCCCCCCCCCCCCCN1/C(=C\C=C\c2oc3ccccc3[n+]2CCCCCCCCCCCCCCCCCC)Oc2ccccc21.[O-][Cl+3]([O-])([O-])[O-]` [DiO], the “uptake into cells (colocalization of DiO and DAPI fluorescence)” value with RAW 264.7 cells is given as “can be uptake into RAW 264.7 cells”.

With `Nc1ccn([C@@H]2O[C@H](CO)[C@@H](O)C2(F)F)c(=O)n1` [GEM, gemcitabine], the “time post-administration after which the concentration cannot be detected” value in series [1] (iv) amounted to 6 h. Also, the AUMC in series [1] (iv, 12 mg/kg) turned out to be 135.11 μg h^2/mL. Further, the “time post-administration within which the concentration still can be detected” value in series [1] (po) is at most 12 h. For the same compound, the AUMC in series [1] (po, 12 mg/kg) was 131.19 μg h^2/mL. In series [2] (setting [5]), the area under the curve (AUC) (commonly concentration integrated over time) worked out at 41100 ng·h/mL; the Cmax (commonly the maximum level reached in the sampled fluid or tissue) came out at 16700 ± 4380 ng/mL; the MRT (in general, the average time that molecules of a dose stay in the body) is 3.28 h; the clearance was 4 mL/min/kg. The half-life (usually the time in which the quantity being followed falls by half) in series [2] (setting [5]) was 2.36 h. The bioavailability – broadly, the share of a dose that reaches the circulation, judged against a reference dose that is usually intravenous – in series [2] (Lewis, rat, plasma, oral, 12 mg/kg) was found to be 56.8%. In series [2] (setting [6]), this compound showed an area under the curve (AUC) of 23400 ng·h/mL, a peak concentration (Cmax) of 3620 ± 1380 ng/mL, a mean residence time MRT of 5.61 h and a half-life of 6.13 h. In addition, in series [2] (setting [7]), the CL was 7.17 mL/min/kg and the Tmaxz is recorded as 4.00 h. Further, the “time at which the concentration reaches the highest peak, post-administration” value in series [2] (Oral group, FIG. 15B) is 4 h.

In the case of `CC(=O)O[C@H]1C(=O)[C@@]2(C)[C@H]([C@H](OC(=O)c3ccccc3)[C@]3(O)C[C@H](OC(=O)[C@H](O)[C@@H](NC(=O)c4ccccc4)c4ccccc4)C(C)=C1C3(C)C)[C@]1(OC(C)=O)CO[C@@H]1C[C@@H]2O` [PTX, paclitaxel], the “time post-administration after which the concentration cannot be detected” value in series [1] (iv) turned out to be 6 h. Moreover, in series [1] (iv, 12 mg/kg), the AUMC worked out at 39.21 μg h^2/mL. Further, in series [1] (po), the “time at which the concentration reaches the highest peak, post-administration” value stood at 6 h and the “time post-administration within which the concentration still can be detected” value is at most 12 h. In series [1] (po, 12 mg/kg), the AUMC is listed as 52.32 μg h^2/mL, the CL turned out to be 23 mL/min/kg and the Tmaxz is listed as 8.00 h. For the same compound, the bioavailability in “in vivo” was determined as 59.2%. Besides, in the series “in vivo” (iv), the AUC came out at 23600 ng·h/mL, the concentration peaked (Cmax) at 20000 ± 5010 ng/mL, the MRT is 1.66 h and the clearance is 7 mL/min/kg. The half-life in the series “in vivo” (iv) was 10.2 h. For the same compound, in “in vivo” (po), the AUC was determined as 7250 ng·h/mL, the maximum concentration (Cmax) was found to be 1010 ± 970 ng/mL, the mean residence time (MRT) was found to be 7.22 h and the half-life is 14.4 h.

Regarding `CCN(CC)c1ccc2c(-c3ccccc3C(=O)O)c3ccc(=[N+](CC)CC)cc-3oc2c1.[Cl-]` [Rhodamine B], in series [3], the “location of fluorescent signals (immunofluorescence staining)” value was “located on the lateral surfaces of the villi, Peyer's patches and tumor”. Further, the “organ accumulation (ex vivo IVIS)” value in series [4] (I.V. control group, tail intravenous injection 12 mg/kg each, 1 hour) is “accumulated in liver, pancreas and kidneys”; in series [4] (control group, cycloheximide intraperitoneally 1 hour before oral administration, 6 hours), “accumulated in liver, pancreas and the lateral surfaces of intestinal tract”; in series [4] (experiment group, oral 12 mg/kg each, 6 hours) it was “accumulated in liver, pancreas and the lateral surfaces of intestinal tract”.
